Source: publication PMC12431657, “Discovery and mechanistic insights of dibenzoylmethane as a broad spectrum inhibitor of coronavirus” (PLOS Pathogens, 2025)
Values joined by “and” are separate entries in the source; they are usually repeats but may differ in a detail not shown here. Identical values can stand only once. Counter-ions that a name gives are not always drawn. Like-named read-outs stand apart in the source and are kept apart here.

Assays:
HCoV-OC43 [1] = experiment: microbe, parasite or virus in culture; assay type: cell-based; conditions: for inhibition at 10 µM: Betacoronavirus 1, OC43, 24 h, read-out: OC43 Inhibition rate
Huh-7 cells = experiment: Cytotoxicity assay (CCK-8), Huh-7 cells
HCoV-OC43 [2] = experiment: Time-of-addition assay; assay type: cell-based
Description: To obtain further insight into the stage at which DBM inhibits the replication of HCoV-OC43 and other HCoVs, RD cells were incubated with compounds, including DBM, remdesivir (RDV), and chloroquine (CQ), at different stages of viral infection. Viral RNA from the supernatant was extracted and quantitatively analysed via qRT-PCR. […] For the viral binding assay, cells were cultured in the presence or absence of DBM at different concentrations for 1 hour before being infected with HCoV-OC43 at an MOI of 50, and then were placed on ice for 2 hours for the viral particles to bind to the membrane of the host cells, followed by washing with PBS. […] In addition to binding to receptors from host cells, the spike proteins of HCoV-OC43 could also trigger membrane fusion when HCoV-OC43 spike plasmid-transfected 293T cells were seeded together with RD cells as target cells, and the addition of DBM had no effect on this process (S5C Fig). To examine whether DBM inhibits viral internalisation, cells were inoculated with HCoV-OC43 for 1 hour on ice before being treated with either DBM or DMSO, and CQ was included to prevent endosomal acidification. Subsequently, HCoV-OC43 nucleocapsid proteins were immunostained with CoraLite Plus 488 to assess viral internalisation via confocal microscopy. […] To determine whether DBM influences viral release, we quantified viral RNA both intracellularly and in the supernatant.
To evaluate the effects of DBM on the life cycle of HCoV-229E and HCoV-OC43, fresh culture medium containing 0.6 μM DBM, 0.1 μM remdesivir (RDV), or 10 μM chloroquine (CQ) was supplemented with preseeded cells at different time points relative to infection (entry group: 0 to –2 hours; postinfection group: 2–12 hours; and full-time group: 0 to –12 hours). DMSO served as the control. At 24 hours postinfection, the number of intracellular virus RNA copies was quantified by qRT-PCR as previously described.

HCoV-229E [3] = experiment: Antiviral activity in vitro, qRT-PCR, HCoV-229E in MRC-5 cells; assay type: cell-based
HCoV-OC43 [4] = conditions: Ingenol 3,20-dibenzoate 10 mpk oral QD; day 2; one value per mouse
HCoV-OC43 [5] = experiment: Antiviral activity in vitro, qRT-PCR, HCoV-OC43 in Huh-7 cells; assay type: cell-based; conditions: Betacoronavirus 1, OC43, Huh-7, 24 h, read-out: EC50 HCoV-OC43 (Huh-7)
HCoV-OC43 [6] = experiment: Antiviral activity in vitro, qRT-PCR, HCoV-OC43 in RD cells; assay type: cell-based; set-up: EC50 (OC43, RD): dose-response value per replicate: concentration or dose not given beside the values
HCoV-229E [7] = experiment: Antiviral activity in vitro, viral RNA copies by qRT-PCR, HCoV-229E in Huh-7 cells; assay type: cell-based; set-up: EC50 (229E, Huh-7): dose-response value per replicate: scale not given here
HCoV-229E [8] = experiment: HTS luminescent cell viability assay, HCoV-229E infection; assay type: cell-based; conditions: for inhibition at 10 µM: Human coronavirus 229E, 24 h, read-out: 229E Inhibition rate
HCoV-OC43 [9] = test system: HCoV-OC43; set-up: species or system RD; HTS, protection from HCoV-OC43 induced cell death, luminescent cell viability (CellCounting-Lite 2.0), inhibition rate; conditions: 24 h, 10 µM; inhibitor
HCoV-229E [10] = test system: HCoV-229E; set-up: species or system Huh-7; HTS, protection from HCoV-229E induced cell death, luminescent cell viability (CellCounting-Lite 2.0), inhibition rate; conditions: 24 h, 10 µM; inhibitor
RD cells = assay type: cell-based
HCoV-OC43 [11] = experiment: HCoV-OC43 replication in siRNA-transfected cells; assay type: cell-based; conditions: replicates
[12] = compound 10 μM, 24 h postinfection

## CC[C@@]1(O)C(=O)OCc2c1cc1n(c2=O)Cc2cc3c(N)cccc3nc2-1 [9-amino-CPT]
HCoV-OC43 [1]; [12]
  OC43 Inhibition rate: -9.5%

## C=C(C)C(CC=C(C)C)Cc1c(O)cc(OC)c2c1O[C@H](c1ccc(O)cc1OC)CC2=O (stereo partly drawn) [(2S)-2’-methoxykurarinone]
Huh-7 cells; CC50 versus EC50, HCoV-229E in Huh-7 and HCoV-OC43 in RD cells
  selectivity index (SI): below 25

## C[S@@+]([O-])CCCCN=C=S [(R)-sulforaphane]
Huh-7 cells
  selectivity index (SI): below 25

## CCN(CC)CCCC(C)Nc1ccnc2cc(Cl)ccc12 (stereo not shown) [CQ]
HCoV-OC43 [2]
  time-of-addition, viral inhibition: 99.3

## CC1=C[C@]23C(=O)[C@@H](C=C(COC(=O)c4ccccc4)[C@@H](O)[C@]2(O)[C@H]1OC(=O)c1ccccc1)[C@H]1[C@@H](C[C@H]3C)C1(C)C [Ingenol 3,20-dibenzoate, ingenol 3,20-dibenzoate]
HCoV-229E [3]
  HCoV-229E, MRC-5: inhibition at the concentration (Fig2B): 90.2
HCoV-229E [3]; Human coronavirus 229E, MRC5, 24 h, read-out: EC50 HCoV-229E (MRC-5)
  EC50: 100 nM
HCoV-OC43 [4]
  Body weight changes: DIED
HCoV-OC43 [5]
  EC50: < 80 nM
HCoV-OC43 [6]; Betacoronavirus 1, OC43, RD, 24 h, read-out: EC50 HCoV-OC43 (RD)
  EC50: < 80 nM
HCoV-229E [7]; Human coronavirus 229E, Huh-7, 24 h, read-out: EC50 HCoV-229E (Huh-7)
  EC50: < 80 nM

## CO[C@@H]1C[C@@H](C[C@H]2CC[C@H](C)[C@H]([C@@H](C)C(=O)O)O2)O[C@]2(O[C@](C)([C@H]3CC[C@@](C)([C@@H]4O[C@@H]([C@H]5O[C@@](O)(CO)[C@H](C)C[C@@H]5C)C[C@@H]4C)O3)C[C@H]2C)[C@@H]1C [Nigericin (sodium salt)]
HCoV-OC43 [1]; 10 µM
  OC43 Inhibition rate: 8.7%
HCoV-229E [8]; 10 µM
  229E Inhibition rate: 0.0%

## O=C(O)c1cc(C(=O)O)c2c(n1)C(=O)C(=O)c1cc(C(=O)O)[nH]c1-2 [Pyrroloquinoline quinone (disodium salt)]
HCoV-OC43 [1]; [12]
  OC43 Inhibition rate: -0.3%
HCoV-229E [8]; [12]
  229E Inhibition rate: 4.0%

## O=C(O)c1cc(C(=O)O)c2c(n1)C(=O)C(=O)c1cc(C(=O)O)[nH]c1-2 [Pyrroloquinoline quinone]
HCoV-OC43 [1]
  inhibition at 10 µM: -0.2%
HCoV-229E [8]
  inhibition at 10 µM: 4.2%

## CC1=C2[C@H]3OC(=O)[C@@H](C)[C@@H]3CC[C@@]2(C)C=CC1=O [Santonin]
HCoV-OC43 [9]
  OC43 Inhibition rate: -0.5%
HCoV-229E [10]
  229E Inhibition rate: 22.7%

## C[C@H]1CC[C@@H]2N(C1)C[C@H]1[C@@H]3C[C@H]4[C@@H](CC(=O)[C@H]5C[C@@H](O)CC[C@@]54C)[C@@H]3CC[C@H]1[C@]2(C)O [Sipeimine]
HCoV-OC43 [9]
  OC43 Inhibition rate: -1%
HCoV-229E [10]
  229E Inhibition rate: 43.3%

## Nc1ncnc2c1ccn2[C@@H]1O[C@H](CO)[C@@H](O)[C@H]1O [Tubercidin]
HCoV-OC43 [1]
  inhibition at 10 µM: 1.9%
HCoV-229E [8]
  inhibition at 10 µM: 12.9%

## O=c1cc(-c2ccc(O)cc2)oc2c([C@@H]3O[C@H](CO)[C@@H](O)[C@H](O)[C@H]3O)c(O)cc(O)c12 [Vitexin]
HCoV-OC43 [9]
  OC43 Inhibition rate: 0%
HCoV-229E [10]
  229E Inhibition rate: 10.4%

## C[C@H]1CC[C@@H]2N(C1)C[C@H]1[C@@H]3C[C@H]4[C@@H](CC(=O)[C@H]5C[C@H](O)CC[C@@]54C)[C@@H]3CC[C@H]1[C@]2(C)O [Yubeinine]
HCoV-OC43 [9]
  OC43 Inhibition rate: 0%
HCoV-229E [10]
  229E Inhibition rate: 8.8%

## C/C=C/c1cc(OC)c(OC)cc1OC [alpha-Asarone]
HCoV-OC43 [9]
  OC43 Inhibition rate: 1.2%
HCoV-229E [10]
  229E Inhibition rate: 14.4%

## C[C@@H]1[C@H](O)[C@@H](C)/C=C/C=C/C=C/C=C/C=C/C=C/C=C/[C@H](O[C@@H]2O[C@H](C)[C@@H](O)[C@H](N)[C@@H]2O)C[C@@H]2O[C@](O)(C[C@@H](O)C[C@@H](O)[C@H](O)CC[C@@H](O)C[C@@H](O)CC(=O)O[C@H]1C)C[C@H](O)[C@H]2C(=O)O [amphotericin B, reference compound]
Huh-7 cells
  selectivity index (SI): below 25

## COc1ccc(-c2oc3c(CC=C(C)C)c(O)cc(O)c3c(=O)c2O[C@@H]2O[C@@H](C)[C@H](O)[C@@H](O)[C@H]2O)cc1 [baohuoside I]
Huh-7 cells
  selectivity index (SI): below 25

## COC[C@@H]1CCCN1S(=O)(=O)c1ccc2c(c1)C(=O)C(=O)N2 [caspase-3/7 inhibitor I, (S)-(+)-5-[1-(2-methoxymethylpyrrolidinyl)sulfonyl]isatin, reference compound]
HCoV-OC43 [6]; HCoV-OC43, cell line not printed (S6C Fig)
  suppression of viral replication: not effective

## CN[C@@H](C)[C@H]1[C@H](O)C[C@@]2(C)[C@@H]3CC[C@H]4C(C)(C)[C@@H](NC)CC[C@@]45C[C@@]35CC[C@]12C [cyclovirobuxine D]
Huh-7 cells
  selectivity index (SI): below 25
HCoV-OC43 [6]
  EC50 (OC43, RD): dose-response value per replicate: 99.7 (3×) and 96.3 and 96.5 and 96.2 and 73.1 and 73 (2×) and 5.5 and 61.2 and 59.8 and 79.4 and 78.3 and 79.9 and 42.6 and 41.4 and 42
HCoV-229E [7]
  EC50 (229E, Huh-7): dose-response value per replicate: 87.1 and 91.6 and 92.1 and 83.4 and 77.4 and 88.7 and 0.1 (10×) and 27 and 13.3

## COC(=O)[C@H]1[C@H]2C[C@@H]3c4[nH]c5ccccc5c4CCN3C[C@H]2C[C@@H](OC(=O)c2cc(OC)c(OC)c(OC)c2)[C@@H]1OC [deserpidine, reference compound]
Huh-7 cells
  selectivity index (SI): below 25

## CC(=O)OC/C1=C\[C@H]2[C@@H](OC(=O)/C=C/c3ccccc3)[C@@H](C)C[C@]2(OC(C)=O)C(=O)/C(C)=C/[C@@H]2[C@H](CC1)C2(C)C [euphorbia factor L7a]
Huh-7 cells
  selectivity index (SI): below 25

## C=C1C(=O)[C@@]23[C@@H]4OC5O[C@@]2(O)[C@@H](O)[C@@H]2C(C)(C)CC[C@@H](O)[C@]52[C@@H]3CC[C@@H]14 [ponicidin]
Huh-7 cells
  selectivity index (SI): below 25

## C=C(C)[C@H](CC=C(C)C)Cc1c(O)cc(O)c2c1O[C@H](c1ccc(O)cc1O)CC2=O [sophoraflavanone G]
Huh-7 cells
  selectivity index (SI): below 25

## C[C@H]1CC[C@@H]2[C@@H](C)[C@H]3[C@H](C[C@H]4[C@@H]5CC=C6C[C@@H](O[C@@H]7O[C@H](CO)[C@H](O)[C@H](O[C@@H]8O[C@H](CO)[C@@H](O)[C@H](O)[C@H]8O)[C@H]7O[C@@H]7O[C@@H](C)[C@H](O)[C@@H](O)[C@H]7O)CC[C@]6(C)[C@H]5CC[C@]34C)N2C1 [α-Solanine]
HCoV-OC43 [9]
  OC43 Inhibition rate: 23.1%
HCoV-229E [10]
  229E Inhibition rate: 9.3%

## C[C@H]1CCC[C@@H](O)CCC/C=C/c2cc(O)cc(O)c2C(=O)O1 [β-Zearalenol]
HCoV-OC43 [9]
  OC43 Inhibition rate: 39.8
HCoV-229E [10]
  229E Inhibition rate: 60.6

## ALG11-2 (sense GGUGCCUGUGCAAGUUGUUTT; antisense AACAACUUGCACAGGCACCTT; chemistry not given here)
RD cells
  Relative mRNA content of the targeted gene after siRNA knockdown (Fig5D): 0.16 and 0.22 and 0.13

## CASP3-1 (sense CCGACAAGCUUGAAUUUAUTT; antisense AUAAAUUCAAGCUUGUCGGTT; chemistry not given here)
HCoV-OC43 [11]
  HCoV-OC43 replication in siRNA-transfected cells, inhibition: -3.8 and -7.6 and -9.9 and 15.1 and 8.0 and 7.0

## CYP1A1-2 (sense GGGUUUGACACAGUCACAATT; antisense UUGUGACUGUGUCAAACCCTT; chemistry not given here)
RD cells
  Relative mRNA content of the targeted gene after siRNA knockdown (Fig5D): 0.00

## ELAC2-2 (sense GCAGAGGGAUGCCAUUAUUTT; antisense AAUAAUGGCAUCCCUCUGCTT; chemistry not given here)
RD cells
  Relative mRNA content of the targeted gene after siRNA knockdown (Fig5D): 0.20 and 0.16 and 0.32

## IDH3G-1 (sense GCAAGAGUAUCGCCAAUAATT; antisense UUAUUGGCGAUACUCUUGCTT; chemistry not given here)
RD cells
  Relative mRNA content of the targeted gene after siRNA knockdown (Fig5D): 0.00

## IDH3G-2 (sense GCACGUGAGUUCCAAUGCUTT; antisense AGCAUUGGAACUCACGUGCTT; chemistry not given here)
RD cells
  Relative mRNA content of the targeted gene after siRNA knockdown (Fig5D): 0.00

## UBP1-1 (sense GCACCCACCCUUUCAGUAUTT; antisense AUACUGAAAGGGUGGGUGCTT; chemistry not given here)
RD cells
  Relative mRNA content of the targeted gene after siRNA knockdown (Fig5D): 0.42 and 0.21 and 0.33
